Measurements published in patent US5157052A, “Method for inhibiting IgE production” (priority 1990, dated 1992).

Tested on: IL-2 receptor
Test: Splenocyte cell surface density/distribution (FACS): IL-2 receptor
Assay type: in vivo, mouse (Balb/c female)
Description: Another (Group B) is injected with 20 μg (±) methyl 11α,16-dihydroxy-16-methyl-9-oxoprosta-5Z,13E-dien-1-oate as in Example 13. […] A 3 cm incision is made with a scalpel above the left hip, and the spleen is cut free from adjoining tissue and placed in a 100 mn plastic culture dish containing 10 ml PBS. The splenic cells are then made into a suspension, by rubbing the spleens between the rough, frosted ends of microscope slides repeatedly until the only remaining particulate matter is connective tissue. Cells are transferred to a 15 ml conical polystyrene tube and centrifuged in a centrifuge at 1200 rpm for 5 minutes. The supernatant is discarded by aspiration and the cell pellet is resuspended in 10 ml PBS, then centrifuged at 1200 rpm for 5 minutes. The supernatant is aspirated and the cell pellet is resuspended in 15 mM Tris, 140 mM Ammonium Chloride, to lyse red blood cells. After incubating at room temperature for 10 minutes the cell suspension is centrifuged at 1200 rpm for 10 minutes. The supernatant is discarded and the cell pellet is resuspended in 10 ml FACS Buffer (PBS containing 0.1% BSA and 0.1% Sodium Azide). The cell suspension is filtered through sterile glass wool plugged in the top of a pasteur pipet. Cells in the flow through are counted using a hemacytometer, then the cell suspension is centrifuged at 1200 rpm for 5 minutes. The supernatant is discarded and the cell pellet is resuspended in a volume of FACS Buffer that will yield 4×10^7 cells/ml. 10 μl (4×10^5 cells) is added to each well of a 96-well V-bottom plate. 25 μl of diluted monoclonal antibody directed against splenocyte cell surface proteins is added to each well: Major Histocompatability Complex (MHC) Class II (M5114, ATCC, Rockville Md.), MHC Class I (M1/42, ATCC), Anti-IgD (JA12.5, ATCC, Rockville, Md.), Thymocyte (Thy)-1 (JIJ, ATCC), B220 (14.8, ATCC), Kappa light chain (187, ATCC), IL-2 Receptor (7D4, ATCC), Lyt-1 (7.313, ATCC) and CD23 (biotinylated B3B4) and incubated on ice for 30 minutes. 100 μl 10% BSA 0.1% sodium azide is added to each well, then the plates are centrifuged at 1200 rpm for 10 minutes. The liquid is removed by aspiration and the cell pellets are resuspended in 100 μl FACS Buffer, and centrifuged at 1200 rpm for 5 minutes. […] Samples are transferred to individual tubes and 10,000 cells are analyzed. Using the Lysis software (Becton Dickinson, Mountain View, Calif.) the mean channel log fluorescence and percent positive cells are determined for the entire cell population. […]

In the case of `CCCCC(C)(O)C/C=C/[C@H]1[C@H](O)CC(=O)[C@@H]1C/C=C\CCCC(=O)OC` (mixture of isomers) [(±) methyl 11α,16-dihydroxy-16-methyl-9-oxoprosta-5Z,13E-dien-1-oate], the “Percentage Positive Cells” value (anti-IgD stimulated mice, 20 μg days 3 and 4, day 7 (PBS 18.4)) is reported as 23 ± 7.7%, the “Mean Channel Log Fluorescence” value (anti-IgD stimulated mice, 20 μg days 3 and 4, day 7 (PBS 101)) is reported as 97 ± 1.5 and the “Percentage Positive Cells” value (unstimulated mice, 20 μg (PBS 2.4)) is reported as 2.7 ± 0.3%. For the same molecule, the “Mean Channel Log Fluorescence” value (unstimulated mice, 20 μg (PBS 98)) was 96 ± 1.
